Active and inactive are the calls of the source.
How the values were obtained:
Candida albicans [1] = assay: Candida growth reduction in fluconazole presence – CaCi-2 strain, Alamar Blue, dry powder, set 2, antifungal resistance reversal project, dose response (AID 488930); type: functional, organism-based
Candida albicans [2] = assay: fluconazole-resistant Candida strain growth inhibitors – CaCi-8 strain, dry powder, set 4, dose response (AID 488950); type: functional, organism-based
Candida albicans [3] = assay: C. albicans growth inhibition with fluconazole – CaCi-2 strain, Alamar Blue, dry powder, set 4, dose response (AID 488943); type: functional, organism-based
Candida albicans [4] = assay: resistant Candida growth with fluconazole co-treatment – CaCi-8 strain, Alamar Blue, dry powder, set 2, dose response (AID 488909); type: functional, organism-based
HEK293 [5] = assay: SAR Analysis of small molecule inhibitors of T-cell specific antigen receptor-induced NF-kB activation in a HEK-293T cell line using a luminescence assay - Set 2. [Related pubchem assays (depositor defined):AID435003, AID435012, AID489026]; type: functional, cell-based; details: Homo sapiens
Jurkat = assay: SAR Analysis of small molecule inhibitors of T-cell specific antigen receptor-induced NF-kB activation in a Jurkat cell line using a luminescence assay - Set 2. [Related pubchem assays (depositor defined):AID435003, AID435012, AID465]; type: functional, cell-based; details: Homo sapiens
HEK293 [6] = assay: HEK293T cell viability loss, resazurin readout – resazurin fluorescence, cytotoxicity control for NF-kB activator project, SAR follow-up (AID 493251); type: functional, cell-based; details: Homo sapiens
[7] = biological target: T1, Calpain-2 catalytic subunit (Sus scrofa, UniProt P43367); assay: m-calpain protease blockers, concentration series – biochemical, fluorogenic peptide substrate, dose response (AID 1420); type: functional
T1 sequence (P43367 whole entry): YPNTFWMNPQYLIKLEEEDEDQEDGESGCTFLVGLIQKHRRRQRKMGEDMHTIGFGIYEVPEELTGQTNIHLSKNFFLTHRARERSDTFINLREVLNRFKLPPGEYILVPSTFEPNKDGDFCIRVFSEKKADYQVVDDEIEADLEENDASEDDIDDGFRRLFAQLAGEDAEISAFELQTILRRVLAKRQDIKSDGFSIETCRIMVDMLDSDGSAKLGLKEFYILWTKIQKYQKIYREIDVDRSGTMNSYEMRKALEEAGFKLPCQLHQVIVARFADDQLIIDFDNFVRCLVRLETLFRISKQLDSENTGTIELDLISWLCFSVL

Escherichia coli [8] = assay: microbe, parasite or virus in culture
Escherichia coli [9] = assay: microbe, parasite or virus in culture; remark: listed apart in the source
[10] = biological target: Glycogen synthase kinase-3 alpha (Homo sapiens, UniProt P49840); assay: Inhibition of Human GSK-3 alpha Activity Measured in Biochemical System Using Microfluidics - 2063-06_Inhibitor_Dose_DryPowder_Activity. [Related pubchem assays (depositor defined):AID2709]
[11] = biological target: Glycogen synthase kinase-3 beta (Homo sapiens, UniProt P49841); assay: Inhibition of Human GSK-3 beta Activity Measured in Biochemical System Using Microfluidics - 2063-05_Inhibitor_Dose_DryPowder_Activity. [Related pubchem assays (depositor defined):AID2709]
INS1 = assay: beta-cell survival under cytokine stress – INS-1E, ATP luminescence, dry powder, dose response (AID 488844); type: functional, cell-based; details: Rattus norvegicus

Sequence of Glycogen synthase kinase-3 alpha (P49840 whole entry): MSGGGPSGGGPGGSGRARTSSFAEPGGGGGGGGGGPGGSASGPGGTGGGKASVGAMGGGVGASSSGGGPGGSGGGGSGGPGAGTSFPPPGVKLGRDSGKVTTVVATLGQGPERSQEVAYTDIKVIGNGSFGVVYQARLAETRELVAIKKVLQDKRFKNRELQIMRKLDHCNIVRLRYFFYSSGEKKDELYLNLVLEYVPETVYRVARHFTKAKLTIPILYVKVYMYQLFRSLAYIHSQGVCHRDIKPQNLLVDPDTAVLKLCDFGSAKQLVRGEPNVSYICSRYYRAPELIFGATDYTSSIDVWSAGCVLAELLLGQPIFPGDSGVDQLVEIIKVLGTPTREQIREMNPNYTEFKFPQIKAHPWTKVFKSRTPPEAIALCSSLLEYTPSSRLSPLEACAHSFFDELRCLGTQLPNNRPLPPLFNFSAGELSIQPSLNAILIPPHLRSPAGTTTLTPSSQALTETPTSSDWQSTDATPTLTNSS
Sequence of Glycogen synthase kinase-3 beta (P49841 whole entry): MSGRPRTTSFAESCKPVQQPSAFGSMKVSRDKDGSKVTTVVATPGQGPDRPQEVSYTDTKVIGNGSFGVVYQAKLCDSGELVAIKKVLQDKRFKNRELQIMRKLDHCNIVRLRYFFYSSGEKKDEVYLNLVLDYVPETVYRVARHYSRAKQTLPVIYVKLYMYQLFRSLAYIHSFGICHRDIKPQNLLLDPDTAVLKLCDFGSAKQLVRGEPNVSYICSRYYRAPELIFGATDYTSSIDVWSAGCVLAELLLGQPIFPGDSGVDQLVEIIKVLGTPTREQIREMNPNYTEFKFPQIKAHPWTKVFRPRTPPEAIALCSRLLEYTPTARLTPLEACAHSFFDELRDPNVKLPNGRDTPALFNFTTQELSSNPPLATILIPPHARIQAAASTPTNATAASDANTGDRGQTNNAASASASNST

In the case of `O=C(c1ccc(Cl)nc1)N1CCN(c2ccnc3cc(Cl)ccc23)CC1`, the AC50 (Candida albicans [1]) is reported as 2.99 µM (active), the AC50 (Candida albicans [2]) is reported as 7.3 µM (active) and the AC50 (Candida albicans [3]) is reported as 3.16 µM (active). The AC50 (Candida albicans [4]) was < 0.195 µM (active).
In the case of `CC(C)(C)NC(=O)CCc1nc(-c2ccc(C(C)(C)C)cc2)no1`, the IC50 (HEK293 [5]) is reported as 6.68 µM (active), the IC50 (Jurkat) is reported as 2.77 µM (active) and the IC50 (HEK293 [6]) is reported as 39 µM (inactive).
For `O=C(CCC(=O)OCc1cccc(C(=O)Oc2ccccc2)c1)Nc1cccc2ccccc12`, the IC50 [7] was < 0.4 µM (not active), the AC50 (Escherichia coli [8]) was 212 µM (active) and the AC50 (Escherichia coli [9]) was 23.5 µM (active).
In the case of `COC(=O)c1ccc(CSc2ccc3nnc(-c4ccc(OC)cc4)n3n2)o1`, the AC50 [10] is reported as 6.84 µM (active) and the AC50 [11] is reported as 1.94 µM (active).
With `COc1ccc(S(=O)(=O)N(C)C[C@@H]2Oc3c(NS(=O)(=O)c4ccc(C)cc4)cccc3C(=O)N([C@@H](C)CO)C[C@H]2C)cc1` the AC50 (INS1) was > 235 µM (inactive).
